# Tests used:
# Assay in all cases: relative viability (nuclei count vs DMSO), 5 days (fraction); higher = more cells survive
# [1] = compound: C1CC1C(=O)NC2=NNC3=C2C=CC(=C3)C4=CC(=CC=C4)C(=O)NC5CC5 [XMD13-2] + CS(=O)(=O)CCNCc1ccc(-c2ccc3ncnc(Nc4ccc(OCc5cccc(F)c5)c(Cl)c4)c3c2)o1 [Lapatinib] (partner 2 µM)
# How it was run: (§1)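 Lung cancer cell lines were pin-tool dosed in 1536-well plates on the day after seeding, with either a lone drug or a fixed anchor-drug dose plus five library-drug doses (not always all listed) in √10 steps. Nuclei were counted on 4× images after 5 days. Relative viability is the ratio of treated-well to vehicle-well nuclei counts, with each value a median of duplicate plates.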
# [2] = compound: Cc1nc(Nc2ncc(C(=O)Nc3c(C)cccc3Cl)s2)cc(N2CCN(CCO)CC2)n1 [Dasatinib] + N=C(N)NC(=N)NCCc1ccccc1 [Phenformin] (partner 250 µM)
# How it was run: as §1
# [3] = compound: C1CC1C(=O)NC2=NNC3=C2C=CC(=C3)C4=CC(=CC=C4)C(=O)NC5CC5 [XMD13-2] + O=C(c1cc(Cc2n[nH]c(=O)c3ccccc23)ccc1F)N1CCN(C(=O)C2CC2)CC1 [Olaparib] (partner 8 µM)
# How it was run: as §1
# [4] = compound: Cc1ccc(C(=O)Nc2cccc(C(F)(F)F)c2)cc1Nc1cncc(C(N)=O)c1 [ALW-II-49-7] + CS(=O)(=O)CCNCc1ccc(-c2ccc3ncnc(Nc4ccc(OCc5cccc(F)c5)c(Cl)c4)c3c2)o1 [Lapatinib] (partner 2 µM)
# How it was run: as §1
Cell Line,relative viability ([1]; first compound 0.05 µM),relative viability ([1]; first compound 0.1581 µM),relative viability ([1]; first compound 0.5 µM),relative viability ([1]; first compound 1.581 µM),relative viability ([1]; first compound 5 µM),relative viability ([2]; first compound 0.005 µM),relative viability ([2]; first compound 0.01581 µM),relative viability ([2]; first compound 0.05 µM),relative viability ([2]; first compound 0.1581 µM),relative viability ([2]; first compound 0.5 µM),relative viability ([3]; first compound 0.05 µM),relative viability ([3]; first compound 0.1581 µM),relative viability ([3]; first compound 0.5 µM),relative viability ([3]; first compound 1.581 µM),relative viability ([3]; first compound 5 µM),relative viability ([4]; first compound 0.08 µM),relative viability ([4]; first compound 0.253 µM),relative viability ([4]; first compound 0.8 µM),relative viability ([4]; first compound 2.53 µM),relative viability ([4]; first compound 8 µM)
LC-2-ad,1.01,1.06,0.971,0.885,0.855,0.636,0.623,0.411,0.306,0.265,0.684,0.716,0.681,0.701,0.718,0.812,0.96,0.932,0.947,0.753
HARA,0.825,0.886,0.699,0.711,0.538,0.422,0.39,0.472,0.273,0.0965,0.76,1.11,0.831,0.987,0.643,0.675,0.689,0.87,0.964,0.866
NCI-H650,0.993,1.06,0.94,0.752,0.829,0.496,0.438,0.433,0.375,0.317,0.379,0.379,0.424,0.462,0.356,0.843,0.843,0.915,0.841,0.662
NCI-H1975,0.968,0.922,0.991,1.01,1.01,0.362,0.347,0.348,0.257,0.188,0.89,0.798,0.828,0.871,0.792,0.742,0.835,0.763,0.994,0.87

# Reference: the supplement of paper PMC10307832
